As a reminder, the IC50 is the point on the concentration scale where inhibition reaches its midpoint.

The record followed here is patent publication US20200138764A1, “METHODS AND DEVICES FOR ACTIVATING ADIPOSE TISSUE” (The Procter & Gamble Company, priority 2018, published 2020).

This experiment concerns the target human TRPM8. Description: TRPM8 Protocol-FLIPR Assay (intracellular Ca2+). The class given is cell-based. The settings on record: HEK-293 cells stably transfected with human TRPM8, Fluo-4 AM, relative to benchmark agonist WS-5. Here is the method:
To determine whether TRPM8 is activated, the intracellular calcium ion (Ca^2+) level was measured from transfected cells with the TRPM8 receptor sequence (SEQ ID NO: 1). HEK-293 (human embryonic kidney) cells stably transfected with human TRPM8 were grown in 15 mL growth medium (high glucose DMEM (Dulbecco's Modification of Eagle's Medium) supplemented with 10% FBS (fetal bovine serum), 100 μg/mL penicillin/streptomycin, 5 μg/mL blasticindin, and 100 μg/mL zeocin) in a 75 cm^2 flask for 3 days at 37° C. in a mammalian cell culture incubator (Forma Scientific Model 3110, Marietta, Ohio) set at 5% CO2. Cells were detached with addition of 2 mL of trypsin-EDTA buffer (GIBCO® 25200, Invitrogen, Grand Island, N.Y.) for about 2-3 min. Trypsin was inactivated by addition of 8 mL growth medium. Cells were transferred to a 50 mL tube and centrifuged at 850 rpm for 3 minutes to remove medium. After centrifugation, a pellet of cells was formed in the bottom of the tube separating them from the supernatant solution. The supernatant was discarded and the cell pellet was suspended in 1 mL of fresh growth medium to which 5 μL (12.5 μg) of Fluo-4 AM (Molecular Probes, Inc., Eugene, Oreg.) calcium indicator was added and incubated for 30 min with gentle shaking. Fluo-4 AM is a fluorescent dye used for quantifying cellular Ca^2+ concentrations in the 100 nM to 1 μM range. At the end of 30 minutes, 45 mL of assay buffer (1×HBSS (Hank's Balanced Salt Solution), 20 mM HEPES (4-(2-Hydroxyethyl)-1-piperazineethanesulfonic acid)) was added to wash cells and the resulting mixture was then centrifuged at 850 rpm for 3 minutes at 20° C. to remove excess buffer and Fluo-4 AM calcium indicator.
The pelleted cells were re-suspended in 10 mL assay buffer and 90 μL aliquots (˜50,000 cells) per well delivered to a 96-well assay plate containing 10 μL of test compounds (1 mM in assay buffer, final concentration 100 μM) or buffer control and incubated at room temperature for 30 minutes. After 30 minutes, a plate (Falcon 353219, Corning Corning N.Y.) was placed into a fluorometric imaging plate reader (FLIPR384 from Molecular Devices, Sunnyvale, Calif.) and basal fluorescence recorded (excitation wave length 488 nm and emission wave length 510 nm). Then 20 μL of 100 mM of TRPM8 agonist WS5 coolant in the assay buffer was added and fluorescence recorded. For determining the direct effect of test compounds on TRPM8, fluorescence was measured immediately after addition of each compound (TABLE 1). Additional discussion of the FLIPR method can be found in Smart et al., Characterization using FLIPR of human vanilloid VR1 receptor pharmacology, European Journal of Pharmacology 417, 51-58 (2001) and Liu et al., Development and validation of a platelet calcium flux assay using a fluorescent imaging plate reader, Analytical Biochemistry 357, 216-224 (2006).
The magnitude of the fluorescence of the active-treated cells was compared to the magnitude of the fluorescence from a benchmark agonist (WS-5), as described above. The percentage of fluorescence as a function of active dose was plotted and a sigmoidal curve was generated. Curve fitting from this dose-response curve yielded the value for TRPM8 IC50 in nM.
TRPM8 activation was determined by measuring intracellular calcium ion (Ca^2+) level from transfected cells with the TRPM8 receptor gene, as described in EXAMPLE 1, the results of which are shown in TABLE 1. IC50 values are provided in column 3 of TABLE 1, which measured the concentration of activating compound needed to reduce intracellular [Ca^2+] by 50%. […]
Molecule `CC(C)[C@@H]1CC[C@@H](C)C[C@H]1C(=O)NC[C@@H](NC(=O)[C@H](C)N)c1ccccc1` [Formula III] came in with an IC50 of 0.002 µM.
Then `CC1CCC(C(C)C)C(O)C1` (stereo not drawn) [Menthol], with 7 µM; and `CCOC(=O)CNC(=O)[C@@H]1C[C@H](C)CC[C@H]1C(C)C` [WS-5], with 2 µM.
